The results in this text go back to patent US20020156236A1, “Binding sites for phosphotyrosine binding domains” (priority 1995, published 2002).

Usually IC50 stands for the concentration at which inhibition is half-maximal.

Like-named read-outs stand apart in the source and are kept apart here. Where a SMILES comes first, the peptide text is derived from it.

For the test, the target named is T1, PTB domain/c-erbB2 binding (GST-PTB domain of SHC; c-erbB2 from SKBR3 lysate) (Homo sapiens, UniProt P29353).
T1 construct: GST-PTB domain fusion proteins were expressed from recombinant baculovirus in sf9 cells; made in house; host or cells: Sf9 cells (recombinant baculovirus) for GST-PTB; c-erbB2 endogenous in SKBR3 cell lysate
T1 sequence (P29353 156-341): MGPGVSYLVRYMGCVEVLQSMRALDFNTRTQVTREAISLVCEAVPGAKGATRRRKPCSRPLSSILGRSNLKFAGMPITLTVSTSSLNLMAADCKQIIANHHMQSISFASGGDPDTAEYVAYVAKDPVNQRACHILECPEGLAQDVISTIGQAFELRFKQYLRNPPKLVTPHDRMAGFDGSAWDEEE
Description: biochemical. Conditions: for block of PTB/c-erbB2 interaction at one peptide concentration, in words: FIG. 2C, 300 nM peptides (legend says 500 nM).

[1] abbreviates: approximate IC50, inhibition of PTB domain/c-erbB2 binding.

Turning to `NC(Cc1ccccc1)C(=O)NC(Cc1ccccc1)C(=O)O` (centres unmarked), the IC50 (Table 3, ability to block PTB domain/c-erbB2 binding, read-out: Affinity (IC50)) was > 30000 nM.

The compound `CC(C)C[C@H](NC(=O)[C@H](CC(N)=O)NC(=O)[C@H](CC(=O)O)NC(=O)[C@H](Cc1ccccc1)NC(=O)[C@H](C)N)C(=O)N[C@@H](Cc1ccc(OP(=O)(O)O)cc1)C(=O)N[C@@H](Cc1ccc(OP(=O)(O)O)cc1)C(=O)N[C@@H](Cc1c[nH]c2ccccc12)C(=O)N[C@@H](CC(=O)O)C(=O)N[C@@H](CCC(N)=O)C(=O)N[C@@H](CC(N)=O)C(=O)N[C@@H](CO)C(=O)O` [AFDNL (pY) (pY) WDQNS, AFDNL(pY)(pY)WDQNS] (HELM PEPTIDE1{A.F.D.N.L.[O=C([C@H](Cc1ccc(OP(=O)(O)O)cc1)N[*:1])[*:2]].[O=C([C@H](Cc1ccc(OP(=O)(O)O)cc1)N[*:1])[*:2]].W.D.Q.N.S}$$$$V2.0) yielded an IC50 (Affinity (IC50)) of 30 nM.

Turning to `CC(C)C[C@H](NC(=O)[C@H](CC(N)=O)NC(=O)[C@H](CC(=O)O)NC(=O)[C@H](Cc1ccccc1)NC(=O)[C@H](C)N)C(=O)N[C@@H](Cc1ccc(OP(=O)(O)O)cc1)C(=O)N[C@@H](Cc1ccc(O)cc1)C(=O)N[C@@H](Cc1c[nH]c2ccccc12)C(=O)N[C@@H](CC(=O)O)C(=O)N[C@@H](CCC(N)=O)C(=O)N[C@@H](CC(N)=O)C(=O)N[C@@H](CO)C(=O)O` [AFDNL (pY) YWDQNS, AFDNL(pY)YWDQNS] (HELM PEPTIDE1{A.F.D.N.L.[O=C([C@H](Cc1ccc(OP(=O)(O)O)cc1)N[*:1])[*:2]].Y.W.D.Q.N.S}$$$$V2.0; N-terminus and C-terminus assumed), the “fold less effective in competition” value came out at 30 fold; the “inhibition of / competition for PTB domain/c-erbB2 binding, in words” value was “strong inhibition”; the “block of PTB/c-erbB2 interaction at one peptide concentration, in words” value is on record as “some inhibition”. The IC50 (Affinity (IC50)) came out at 1000 nM.

Regarding `CC(C)C[C@H](NC(=O)[C@H](CC(N)=O)NC(=O)[C@H](CC(=O)O)NC(=O)[C@H](Cc1ccccc1)NC(=O)[C@H](C)N)C(=O)N[C@@H](Cc1ccc(O)cc1)C(=O)N[C@@H](Cc1ccc(OP(=O)(O)O)cc1)C(=O)N[C@@H](Cc1c[nH]c2ccccc12)C(=O)N[C@@H](CC(=O)O)C(=O)N[C@@H](CCC(N)=O)C(=O)N[C@@H](CC(N)=O)C(=O)N[C@@H](CO)C(=O)O` [AFDNLY (pY) WDQNS, AFDNLY(pY)WDQNS] (HELM PEPTIDE1{A.F.D.N.L.Y.[O=C([C@H](Cc1ccc(OP(=O)(O)O)cc1)N[*:1])[*:2]].W.D.Q.N.S}$$$$V2.0; N-terminus and C-terminus assumed), the “IC50 compared with that of AFDNL(pY)(pY)WDQNS, in words” value is recorded as “approximately equal” and the “block of PTB/c-erbB2 interaction at one peptide concentration, in words” value is on record as “completely block”. The compound also came in with an IC50 (Affinity (IC50)) of 30 nM. For the setting “Apparent Inhibition (IC50)”, the IC50 is 30 nM. The 50% inhibitory concentration (IC50) under setting [1] is ~30 nM.

`CC(C)C[C@H](NC(=O)[C@H](Cc1ccc(OP(=O)(O)O)cc1)NC(=O)[C@H](CCC(=O)O)NC(=O)[C@@H]1CCCN1C(=O)[C@H](CC(N)=O)NC(=O)[C@H](CCC(=O)O)NC(=O)[C@@H](NC(=O)[C@H](C)NC(=O)CNC(=O)CNC(=O)[C@H](Cc1ccccc1)NC(=O)[C@H](C)N)C(C)C)C(=O)N[C@@H](C)C(=O)N1CCC[C@H]1C(=O)N[C@@H](CCCNC(=N)N)C(=O)N[C@@H](C)C(=O)NCC(=O)N[C@H](C(=O)N[C@@H](C)C(=O)N[C@@H](CO)C(=O)N[C@@H](CCC(N)=O)C(=O)O)[C@@H](C)O` [AFGGAVENPE (pY) LAPRAGTASQ, AFGGAVENPE(pY)LAPRAGTASQ] (HELM PEPTIDE1{A.F.G.G.A.V.E.N.P.E.[O=C([C@H](Cc1ccc(OP(=O)(O)O)cc1)N[*:1])[*:2]].L.A.P.R.A.G.T.A.S.Q}$$$$V2.0): the IC50 (Apparent Inhibition (IC50)) was found to be 1000 nM and the IC50 under setting [1] is ~1000 nM.

For the compound `CC(C)C[C@H](NC(=O)[C@@H]1CCCN1C(=O)[C@H](C)N)C(=O)N[C@@H](C)C(=O)N[C@@H](CS)C(=O)N[C@@H](CO)C(=O)N1CCC[C@H]1C(=O)N[C@@H](CCC(N)=O)C(=O)N1CCC[C@H]1C(=O)N[C@@H](CCC(=O)O)C(=O)N[C@@H](Cc1ccc(OP(=O)(O)O)cc1)C(=O)N[C@H](C(=O)N[C@@H](CC(N)=O)C(=O)N[C@@H](CCC(N)=O)C(=O)N1CCC[C@H]1C(=O)N[C@@H](CCC(=O)O)C(=O)N[C@H](C(=O)N[C@@H](CCCNC(=N)N)C(=O)N1CCC[C@H]1C(=O)N[C@@H](CCC(N)=O)C(=O)N[C@@H](CO)C(=O)O)C(C)C)C(C)C` [APLACSPQPE (pY) VNQPEVRPQS, APLACSPQPE(pY)VNQPEVRPQS] (HELM PEPTIDE1{A.P.L.A.C.S.P.Q.P.E.[O=C([C@H](Cc1ccc(OP(=O)(O)O)cc1)N[*:1])[*:2]].V.N.Q.P.E.V.R.P.Q.S}$$$$V2.0), the IC50 (Apparent Inhibition (IC50)) is > 100000 nM.

With `CC(C)C[C@H](NC(=O)[C@H](CCC(N)=O)NC(=O)[C@H](CC(N)=O)NC(=O)[C@H](CCC(N)=O)NC(=O)[C@H](CO)NC(=O)[C@H](Cc1ccc(OP(=O)(O)O)cc1)NC(=O)[C@H](Cc1c[nH]c2ccccc12)NC(=O)[C@H](CO)NC(=O)[C@@H](N)CC(=O)O)C(=O)N[C@@H](Cc1ccccc1)C(=O)N[C@@H](CC(=O)O)C(=O)N[C@@H](CO)C(=O)N[C@@H](Cc1ccccc1)C(=O)N[C@@H](C)C(=O)N1CCC[C@H]1C(=O)N[C@@H](CCC(=O)O)C(=O)NCC(=O)N[C@@H](Cc1ccc(OP(=O)(O)O)cc1)C(=O)N1CCC[C@H]1C(=O)N[C@@H](C)C(=O)N[C@@H](CC(N)=O)C(=O)O` [DSW (pY) SQNQLFDSFAPEG (pY) PAN] (HELM PEPTIDE1{D.S.W.[O=C([C@H](Cc1ccc(OP(=O)(O)O)cc1)N[*:1])[*:2]].S.Q.N.Q.L.F.D.S.F.A.P.E.G.[O=C([C@H](Cc1ccc(OP(=O)(O)O)cc1)N[*:1])[*:2]].P.A.N}$$$$V2.0), under “Affinity (IC50)”, the IC50 was > 30000 nM.

On to `CC(C)C[C@H](NC(=O)[C@H](CCC(N)=O)NC(=O)[C@H](CC(N)=O)NC(=O)[C@H](CCC(N)=O)NC(=O)[C@H](CC(=O)O)NC(=O)[C@H](Cc1c[nH]c2ccccc12)NC(=O)[C@H](CO)NC(=O)[C@@H](N)CC(=O)O)C(=O)N[C@@H](Cc1ccccc1)C(=O)N[C@@H](CO)C(=O)N[C@@H](Cc1ccc(OP(=O)(O)O)cc1)C(=O)N[C@@H](Cc1ccc(OP(=O)(O)O)cc1)C(=O)N[C@@H](CO)C(=O)N[C@@H](Cc1ccccc1)C(=O)N[C@@H](C)C(=O)N1CCC[C@H]1C(=O)N[C@@H](CCC(=O)O)C(=O)NCC(=O)N1CCC[C@H]1C(=O)N[C@@H](C)C(=O)N[C@@H](CC(N)=O)C(=O)O` [DSWDQNQLFS (pY) (pY) SFAPEGPAN] (HELM PEPTIDE1{D.S.W.D.Q.N.Q.L.F.S.[O=C([C@H](Cc1ccc(OP(=O)(O)O)cc1)N[*:1])[*:2]].[O=C([C@H](Cc1ccc(OP(=O)(O)O)cc1)N[*:1])[*:2]].S.F.A.P.E.G.P.A.N}$$$$V2.0), for which the IC50 (Affinity (IC50)) was > 30000 nM.

With `CC(C)C[C@H](NC(=O)CNC(=O)[C@H](CC(C)C)NC(=O)[C@H](Cc1ccc(OP(=O)(O)O)cc1)NC(=O)[C@H](CCC(=O)O)NC(=O)[C@@H]1CCCN1C(=O)[C@H](CC(N)=O)NC(=O)[C@H](CCC(=O)O)NC(=O)[C@H](C)NC(=O)[C@@H](NC(=O)[C@@H]1CCCN1C(=O)[C@@H](NC(=O)CNC(=O)[C@@H](N)CCC(=O)O)[C@@H](C)O)[C@@H](C)O)C(=O)N[C@@H](CC(=O)O)C(=O)N[C@H](C(=O)N1CCC[C@H]1C(=O)N[C@H](C(=O)O)C(C)C)C(C)C` [EGTPTAENPE (pY) LGLDVPV, EGTPTAENPE(pY)LGLDVPV] (HELM PEPTIDE1{E.G.T.P.T.A.E.N.P.E.[O=C([C@H](Cc1ccc(OP(=O)(O)O)cc1)N[*:1])[*:2]].L.G.L.D.V.P.V}$$$$V2.0), the IC50 by setting is: (Apparent Inhibition (IC50)) 1000 nM; under setting [1], ~1000 nM.

Consider `CC(C)C[C@H](NC(=O)[C@H](CC(N)=O)NC(=O)[C@H](CC(=O)O)NC(=O)[C@H](Cc1ccccc1)NC(=O)[C@H](C)NC(=O)[C@@H]1CCCN1C(=O)[C@H](CO)NC(=O)[C@H](Cc1ccccc1)NC(=O)[C@H](C)NC(=O)[C@@H]1CCCN1)C(=O)N[C@@H](COP(=O)(O)O)C(=O)N[C@@H](COP(=O)(O)O)C(=O)N[C@@H](Cc1c[nH]c2ccccc12)C(=O)N[C@@H](CC(=O)O)C(=O)N[C@@H](CCC(N)=O)C(=O)N[C@@H](CC(N)=O)C(=O)N[C@@H](CO)C(=O)N[C@@H](CO)C(=O)N[C@@H](CCC(=O)O)C(=O)N[C@@H](CCC(N)=O)C(=O)NCC(=O)O` [PAFSPAFDNL (pS) (pS) WDQNSSEQG] (HELM PEPTIDE1{P.A.F.S.P.A.F.D.N.L.[O=C([C@H](COP(=O)(O)O)N[*:1])[*:2]].[O=C([C@H](COP(=O)(O)O)N[*:1])[*:2]].W.D.Q.N.S.S.E.Q.G}$$$$V2.0), for which the IC50 (Affinity (IC50), Table 3, ability to block PTB domain/c-erbB2 binding) is > 30000 nM.

As to `CC(C)C[C@H](NC(=O)[C@@H]1CCCN1C(=O)[C@H](CC(C)C)NC(=O)[C@@H](NC(=O)[C@@H]1CCCN1C(=O)[C@H](CC(=O)O)NC(=O)[C@H](CCC(=O)O)NC(=O)[C@H](CO)NC(=O)[C@H](Cc1ccc(OP(=O)(O)O)cc1)NC(=O)[C@H](CCCNC(=N)N)NC(=O)[C@H](CCC(N)=O)NC(=O)[C@H](CC(C)C)NC(=O)[C@@H]1CCCN1C(=O)[C@H](CO)NC(=O)[C@H](CC(C)C)NC(=O)[C@H](CC(=O)O)NC(=O)[C@H](Cc1c[nH]cn1)NC(=O)[C@@H]1CCCN1C(=O)[C@@H](N)CO)[C@@H](C)O)C(=O)O` [SPHDLSPLQR (pY) SEDPTLPL] (HELM PEPTIDE1{S.P.H.D.L.S.P.L.Q.R.[O=C([C@H](Cc1ccc(OP(=O)(O)O)cc1)N[*:1])[*:2]].S.E.D.P.T.L.P.L}$$$$V2.0), the IC50 (Apparent Inhibition (IC50)) was > 100000 nM.
